The source of these data is US20240374535A1, “COMPOSITIONS AND METHODS FOR TREATING BIOFILM DISORDERS AND INFECTIONS” (AHV International B.V., priority 2021, published 2024).

This test has as its system cows with a SCC of more as 250.000 cells/ml. As to the kind of experiment: In vivo mastitis test: somatic cell count (SCC) in milk after a single oral tablet. On the set-up: species or system cow. The conditions noted are these: single oral tablet (10 g), 60 days, FIG. 1. The method, then: Experiments were performed to examine the effect of compounds on the cell count or somatic cell count (SCC) in milk.
Somatic cell counts (SCC) is related to the amount of pathogens that are in the quarter visible for the immune system. The cell count of each cow was measured with the milk production registration (MPR). This MPR is done periodically every 30-40 days at all farms. The Somatic Cell Count (SCC) is a main indicator of milk quality. The majority of somatic cells are leukocytes (white blood cells)—which become present in increasing numbers in milk usually as an immune response to a mastitis-causing pathogen—and a small number of epithelial cells, which are milk-producing cells shed from inside of the udder when an infection occurs.
The SCC data was extracted from milk production registrations (MPRs). MPRs are databases showing all details (e.g. SCC) of the produced milk per individual cow. MPRs of the selected farms were available periodically. SCC is quantified as the number of cells per ml of milk. In general terms: an individual cow with a value for SCC of 100,000 or less indicates an ‘uninfected’ cow and there were no significant production losses due to subclinical mastitis. A threshold SCC above 250,000 indicates infection and counts between 100,000 to 250,000 indicate a high risk of infection.
The experiments were performed on a farm with 90 cows. Examination was performed on cell count with the above described tablets during 60 days.
Cows with a SCC of more as 250.000 cells/ml before treatment were selected for administration of a single tablet.

Consider `CCCS[S+]([O-])CCC` (centres unmarked) [Di-n-propyl thiosulfinate, S-propyl propane-1-sulfinothioate], for which the “somatic cell count (SCC) of milk” value was “significantly decreased”.

In the case of `CSS(C)(=O)=O` [Di-methyl thiosulfonate, methyl methane thiosulfonate], the “somatic cell count (SCC) of milk” value is given as “significantly decreased”.
